Measured values taken from patent US20030008024A1, “Therapeutic composition of herbal extracts and the uses thereof” (Advanced Herbal Therapeutics, Inc., priority 2001, published 2003).

Experiments:
[1] = system: paw swelling induced by carrageenin; assay: Paw swelling induced by carrageenin in rat; format: in vivo, SD rats; conditions: 0.25 g/kg p.o. 3 days
Description: A total of 50 SD rats weighing 100-120g with equal sex distribution were randomly divided into 5 groups. The rats were treated p.o. with different doses of AHT-323, tragacanth, or aspirin once daily for 3 days. One hour later, rats were given subcutaneously injections with 0.05 ml of carrageenin (1%) in the right paw of each rat. The degree of paw swelling was measured using the drainage method before and 1, 3, 4, 5, and 6 h after injection of the carrageenin.

[2] = system: T cells of AA mice; assay: T cells of AA mice (esterase stain, flow cytometry); format: in vivo, NIH mice; conditions: 0.012 g/kg
Description: A total of 60 NIH mice weighing 20±2 g were randomly divided into 6 groups, among which four groups were injected intradermially with 0.05 ml FCA to induce AA model mice. The negative control group was injected intradermially with 0.05ml saline. The rats in AHT-323 test groups were administrated orally with AHT-323 once daily for consecutive five days. Five days later, peripheral blood was drawn from mice in all groups and stained with esterase. The percent of T cells (positive esterase stained cells) was calculated.
The above mice were anesthetized and spleens were removed and made into splenocytes suspension. CD4^+ T cells and CD8^+ T cells were assayed with flow cytometry and CD4^+/CD8^+ was calculated.

[3] = system: peritoneal macrophage; assay: CRBC phagocytosis of peritoneal macrophage of mice; format: in vivo; conditions: 0.005 g/kg p.o. once daily 7 days
Description: Totals of 50 NIH mice weighing 18-22 g with equal sex distribution were randomly divided into 5 groups. The mice were treated p.o. with different doses of AHT-323 or other positive control drug once daily for 7 days. 1 h after the last dose, mice were injected i.p. with 0.2 ml […] of chick (10%). 4 h later, mice were sacrificed and the peritoneal fluid was obtained. Under microscope, the amount of macrophage that phagocytosed CRBC and the amount of CRBC phagocytosed by each macrophage were counted.

[4] = system: ear swelling induced by croton oil; assay: Ear swelling induced by croton oil; format: in vivo, NIH mice; conditions: 0.003 g/kg p.o. once daily 3 days
Description: A total of 60 NIH mice weighing 18-22 g with equal sex distribution were randomly divided into 6 groups. The mice were treated p.o. with different doses of AHT-323, tragacanth, or DXM once daily for 3 days. One hour after the last administration, 0.02 ml croton oil (2%) was pasted around the left auricle. Four hours later, mice were sacrificed by dislocating cervical vertebrae. The right and left ears were cut off and weighed to get the differences in the degree of ear swelling.

[5] = system: WBC of pleura; assay: Migration of inflammatory cells of pleura (Fucus siliquosus glue); format: in vivo, NIH mice; conditions: 0.05 g/kg
Description: A total of 50 NIH mice were randomly divided into five groups. 0.5% Evans blue saline was injected into caudal vein at 0.1 ml/10 g body weight. Then mice were lightly anesthetized with ether and injected with 0.03 ml of Fucus siliquosus glue into right thoracic cavity to induce inflammation. 4 h and 32 h after inflammation induction, the mice were sacrificed and 2 ml of thoracic cavity wash liquid was collected and used to count the WBC and measure the optical density (OD) at 600 nm. […] The regression equation on 4 h was y=44.13-2.01x, r=0.9625.

[6] = system: cotton granuloma; assay: Cotton granuloma and organ weights; format: in vivo, SD rats; conditions: 0.05 g/kg p.o. once daily 7 days
Description: 150 SD rats weighing 150-180 g with equal sex distribution were randomly divided into 15 groups. After light anesthesia with ether, an aseptic cotton ball (10 mg) was implanted into each armpit. On that day, rats were administered p.o. with different doses of AHT-323 or DXM once daily for 7 days. Twenty four hours after the last drug administration, the rats were sacrificed and the cotton balled granuloma were removed. The wet and dry weight of the granuloma, and other organs were obtained.

[7] = system: adjuvant arthritis (AA) rats; assay: Therapeutic effect on adjuvant arthritis rats (swelling); format: in vivo, SD rats; conditions: 0.01 g/kg
Description: (§1) In the study, 60 male SD rats weighing 180-220 g were used and randomly divided into 5 groups, including three test groups, one negative and one positive control groups. The rats were given p.o. three different dosages of AHT-323, tragacanth, or prednisone, respectively, once daily for 4 consecutive weeks. 0.1 ml of Freund's Complete Adjuvant (FCA) was also injected intradermally into the plantar of left hind paw of rats […]. Each day, the maximal circumference of both left and right paw and ankle joint were measured, and the swelling degrees (mm) were calculated to determine the AHT-323 on both primary and secondary injury. The primary injury occurs at the homolateral joints of the adjuvant injection and is resulted from direct, non-specific inflammatory reaction of the body to adjuvant. Whereas the secondary injury occurs at the contralateral joints of the adjuvant injection in about two weeks after adjuvant injection and is related to auto-immune responses induced by adjuvant injection. The pathological changes of human rheumatoid arthritis is similar to that of the secondary injury in AA rats.
Totals of 50 male SD rats were divided into 5 groups with the same treatment as experiments described in section 3.3.1 except that the AHT-323 was given p.o. from d13˜d28 once daily for 2 weeks, (from the thirteenth day after injection of Freund's Complete Adjuvant).

[8] = system: adjuvant arthritis (AA) rats; assay: Prophylactic effect on rat adjuvant arthritis (paw and ankle swelling); format: in vivo, SD rats; conditions: 0.01 g/kg p.o.
Description: The study was conducted in adjuvant arthritis (AA) rats, an experimental model for human rheumatoid arthritis.
as §1

CC(=O)Oc1ccccc1C(=O)O [Aspirin, aspirin]
Paw swelling rate (%) ([1]; 1 h): 6.3 ± 4.1 %
Paw swelling rate (%) ([1]; 3 h): 11.1 ± 6.3 %
Paw swelling rate (%) ([1]; 4 h): 17.9 ± 7.6 %
Paw swelling rate (%) ([1]; 5 h): 18.1 ± 7.0 %
Paw swelling rate (%) ([1]; 6 h): 20.6 ± 6.0 %

CC(=O)OC[C@]12[C@H](OC(C)=O)[C@H](OC(C)=O)[C@@H]3[C@@H](OC(C)=O)[C@@]14O[C@@]3(C)COC(=O)c1cccnc1CCC(C)(O)C(=O)O[C@@H]([C@H](OC(=O)c1ccccc1)[C@@H]2OC(C)=O)[C@]4(C)O (stereo partly shown) [Wilfordine]
CD4^+/CD8^+ [2]: 1.70 ± 0.03
ANAE^+ (%) ([2]; peripheral blood): 48.88 ± 2.89%
CD4^+ (%) ([2]; splenocytes): 27.88 ± 1.99 %
CD8^+ (%) ([2]; splenocytes): 16.33 ± 1.31 %

C[C@@H]1C[C@H]2[C@@H]3CCC4=CC(=O)C=C[C@]4(C)[C@@]3(F)[C@@H](O)C[C@]2(C)[C@@]1(O)C(=O)CO [DXM, dexamethasone]
Phagocytic index [3]: 1.10 ± 0.18
Phagocytic percent (%) [3]: 8.33 ± 10.13 %
Swelling degree [4]: 14.13 ± 5.75 mg
inhibition at 3 mg/kg ([4]; Mus musculus, po, 72 h, read-out: Inhibition rate): 68.2%
WBC count ([5]; 4 h after inflammation induction): 12.7 ± 10.2
WBC count ([5]; 32 h): 4.4 ± 4.0
Granuloma Wt. Dry Wt. [6]: 77 ± 17 mg/100 g
Granuloma Wt. Wet Wt. [6]: 346 ± 92 mg/100 g
Weight of organs: Adrenal [6]: 17 ± 5 mg/100 g
Weight of organs: Spleen [6]: 412 ± 173 mg/100 g
Weight of organs: Thymus [6]: 38 ± 13 mg/100 g
Weight of organs: uterus [6]: 126 ± 33 mg/100 g

C[C@]12C=CC(=O)C=C1CC[C@@H]1[C@@H]2C(=O)C[C@@]2(C)[C@H]1CC[C@]2(O)C(=O)CO [Prednisone, prednisone]
Swelling degree ([7]; primary injury, therapeutic (p.o. d13˜d28), D1): 1.78 ± 0.51 cm
Swelling degree ([7]; primary injury, therapeutic (p.o. d13˜d28), d2): 1.70 ± 0.51 cm
Swelling degree ([7]; primary injury, therapeutic (p.o. d13˜d28), d4): 1.63 ± 0.50 cm
Swelling degree ([7]; primary injury, therapeutic (p.o. d13˜d28), d6): 1.58 ± 0.50 cm
Swelling degree ([7]; primary injury, therapeutic, 2nd block col 1 (day not given)): 1.27 ± 0.46 cm
Swelling degree ([7]; primary injury, therapeutic, 2nd block col 2 (day not given)): 1.09 ± 0.54 cm
Swelling degree ([7]; primary injury, therapeutic, 2nd block col 3 (day not given)): 0.94 ± 0.50 cm
Swelling degree ([7]; primary injury, therapeutic, 2nd block col 4 (day not given)): 0.94 ± 0.42 cm
Swelling degree ([7]; secondary injury, therapeutic (p.o. d13˜d28), D1): 1.08 ± 00.41 cm
Swelling degree ([7]; secondary injury, therapeutic (p.o. d13˜d28), d2): 1.18 ± 00.44 cm
Swelling degree ([7]; secondary injury, therapeutic (p.o. d13˜d28), d4): 1.23 ± 00.42 cm
Swelling degree ([7]; secondary injury, therapeutic (p.o. d13˜d28), d6): 1.19 ± 00.38 cm
Swelling degree ([7]; secondary injury, therapeutic, 2nd block col 1 (day not given)): 0.88 ± 00.47 cm
Swelling degree ([7]; secondary injury, therapeutic, 2nd block col 2 (day not given)): 0.95 ± 00.43 cm
Swelling degree ([7]; secondary injury, therapeutic, 2nd block col 3 (day not given)): 0.82 ± 00.48 cm
Swelling degree ([7]; secondary injury, therapeutic, 2nd block col 4 (day not given)): 0.75 ± 00.37 cm
Swelling degree ([8]; primary injury, 2nd block col 1 (day not given)): 1.18 ± 0.76 cm
Swelling degree ([8]; primary injury, 2nd block col 2 (day not given)): 1.03 ± 0.67 cm
Swelling degree ([8]; primary injury, 2nd block col 3 (day not given)): 1.05 ± 0.69 cm
Swelling degree ([8]; primary injury, 2nd block col 4 (day not given)): 0.90 ± 0.64 cm
Swelling degree ([8]; primary injury, 2nd block col 5 (day not given)): 0.86 ± 0.65 cm
Swelling degree ([8]; primary injury, 2nd block col 6 (day not given)): 0.85 ± 0.59 cm
Swelling degree ([8]; primary injury, d1): 0.64 ± 0.14 cm
Swelling degree ([8]; primary injury, d2): 0.64 ± 0.16 cm
Swelling degree ([8]; primary injury, d3): 0.50 ± 0.26 cm
Swelling degree ([8]; primary injury, d9): 0.46 ± 0.25 cm
Swelling degree ([8]; primary injury, d12): 0.72 ± 0.46 cm
Swelling degree ([8]; primary injury, d14): 0.87 ± 0.46 cm
Swelling degree ([8]; primary injury, d16): 1.28 ± 0.69 cm
Swelling degree ([8]; secondary injury, 2nd block col 1 (day not given)): 0.78 ± 0.70 cm
Swelling degree ([8]; secondary injury, 2nd block col 2 (day not given)): 0.72 ± 0.71 cm
Swelling degree ([8]; secondary injury, 2nd block col 3 (day not given)): 0.67 ± 0.64 cm
Swelling degree ([8]; secondary injury, 2nd block col 4 (day not given)): 0.62 ± 0.61 cm
Swelling degree ([8]; secondary injury, 2nd block col 5 (day not given)): 0.65 ± 0.64 cm
Swelling degree ([8]; secondary injury, D9): 0.038 ± 0.048 cm
Swelling degree ([8]; secondary injury, d2): 0.016 ± 0.039 cm
Swelling degree ([8]; secondary injury, d12): 0.14 ± 0.14 cm
Swelling degree ([8]; secondary injury, d14): 0.38 ± 0.39 cm
Swelling degree ([8]; secondary injury, d16): 0.92 ± 0.62 cm
Swelling degree ([8]; secondary injury, d18): 0.78 ± 0.71 cm
